In patent US20240245670A1, “DOSING REGIMEN AND PHARMACEUTICAL COMBINATION COMPRISING 3-(1-OXOISOINDOLIN-2-YL)PIPERIDINE-2,6-DIONE DERIVATIVES” (Novartis AG, priority 2018, published 2024):
Entries after “also recorded” stand apart in the source; their conditions may differ.

Assays:
[1] = target: T1, IKZF2 expression in human CD4+FOXP3+ regulatory T cells (Homo sapiens, UniProt Q96SW2+Q9UKS7); assay: PD in MDA-MB231 xenograft hPBMC AdT model: IKZF2 in Tregs by flow cytometry (FIG. 7); format: in vivo
T1 construct: endogenous in cells; host or cells: adoptively transferred human PBMCs (Tregs, tumor-infiltrating lymphocytes) in NSG mice
T1 sequence (Q9UKS7 whole entry): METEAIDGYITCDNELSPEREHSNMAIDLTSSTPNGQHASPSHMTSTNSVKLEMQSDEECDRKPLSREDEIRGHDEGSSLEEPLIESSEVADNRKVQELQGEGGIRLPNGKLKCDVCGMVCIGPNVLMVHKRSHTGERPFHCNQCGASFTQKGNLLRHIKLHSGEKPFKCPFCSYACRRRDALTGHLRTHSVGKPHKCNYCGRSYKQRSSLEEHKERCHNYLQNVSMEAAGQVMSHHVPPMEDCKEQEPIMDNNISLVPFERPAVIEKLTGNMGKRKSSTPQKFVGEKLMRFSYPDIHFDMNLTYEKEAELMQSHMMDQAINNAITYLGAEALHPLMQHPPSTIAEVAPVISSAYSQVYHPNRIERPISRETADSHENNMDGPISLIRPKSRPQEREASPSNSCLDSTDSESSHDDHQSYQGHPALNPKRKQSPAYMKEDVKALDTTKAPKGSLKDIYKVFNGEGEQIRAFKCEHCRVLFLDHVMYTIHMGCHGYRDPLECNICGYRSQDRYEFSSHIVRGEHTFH
T1 sequence (Q96SW2 whole entry): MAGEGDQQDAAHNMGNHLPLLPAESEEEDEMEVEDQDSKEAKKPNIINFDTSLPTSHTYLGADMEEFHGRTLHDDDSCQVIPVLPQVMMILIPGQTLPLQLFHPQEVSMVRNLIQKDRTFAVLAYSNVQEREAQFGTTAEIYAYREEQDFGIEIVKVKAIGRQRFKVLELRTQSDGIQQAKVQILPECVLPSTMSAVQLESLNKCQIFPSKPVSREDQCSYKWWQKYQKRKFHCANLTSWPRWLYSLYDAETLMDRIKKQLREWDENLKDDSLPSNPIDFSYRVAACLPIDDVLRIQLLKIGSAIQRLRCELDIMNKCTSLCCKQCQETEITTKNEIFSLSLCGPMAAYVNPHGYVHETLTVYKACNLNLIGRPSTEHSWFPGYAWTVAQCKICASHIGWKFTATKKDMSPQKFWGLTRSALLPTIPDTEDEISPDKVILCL
T1 sequence (Q16531 whole entry partner): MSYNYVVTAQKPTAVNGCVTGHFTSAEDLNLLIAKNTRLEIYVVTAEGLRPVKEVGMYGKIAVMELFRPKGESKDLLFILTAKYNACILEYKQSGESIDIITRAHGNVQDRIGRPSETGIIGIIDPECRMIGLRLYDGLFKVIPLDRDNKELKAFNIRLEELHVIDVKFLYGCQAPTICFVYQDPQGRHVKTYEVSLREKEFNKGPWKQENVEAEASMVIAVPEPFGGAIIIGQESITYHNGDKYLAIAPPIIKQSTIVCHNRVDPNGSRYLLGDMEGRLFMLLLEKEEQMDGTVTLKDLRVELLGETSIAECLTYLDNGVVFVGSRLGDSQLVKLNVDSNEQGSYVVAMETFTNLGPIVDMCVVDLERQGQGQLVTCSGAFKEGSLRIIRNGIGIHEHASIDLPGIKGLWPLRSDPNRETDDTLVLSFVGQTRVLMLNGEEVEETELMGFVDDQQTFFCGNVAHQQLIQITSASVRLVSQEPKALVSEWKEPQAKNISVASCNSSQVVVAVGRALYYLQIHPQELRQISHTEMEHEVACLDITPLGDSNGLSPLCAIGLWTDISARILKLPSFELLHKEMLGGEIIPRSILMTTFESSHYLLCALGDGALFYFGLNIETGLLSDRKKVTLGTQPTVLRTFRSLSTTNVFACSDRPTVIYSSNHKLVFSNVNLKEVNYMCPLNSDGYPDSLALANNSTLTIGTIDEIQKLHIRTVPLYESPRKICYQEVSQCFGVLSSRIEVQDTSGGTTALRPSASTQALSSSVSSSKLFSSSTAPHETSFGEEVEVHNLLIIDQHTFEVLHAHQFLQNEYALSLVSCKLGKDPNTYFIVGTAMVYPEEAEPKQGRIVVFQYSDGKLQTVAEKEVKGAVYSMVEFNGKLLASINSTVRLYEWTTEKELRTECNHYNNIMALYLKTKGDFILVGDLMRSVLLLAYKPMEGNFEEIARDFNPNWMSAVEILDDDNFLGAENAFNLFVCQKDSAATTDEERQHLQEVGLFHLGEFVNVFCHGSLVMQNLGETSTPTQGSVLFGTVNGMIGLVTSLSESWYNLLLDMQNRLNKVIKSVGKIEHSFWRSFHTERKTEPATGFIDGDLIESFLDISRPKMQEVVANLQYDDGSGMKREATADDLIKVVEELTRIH
Experimental: FIG. 6 is a pictorial representation of the multi-dose PK/PD study design in the human PBMC adoptive transfer mouse model harboring MDA-MB231 xenografts. Fourteen consecutive daily doses of Compound I-57 was administered at 0.3 mg/kg, 1 mg/kg, 3 mg/kg or 30 mg/kg.
FIG. 7 is a graph showing the change in the IKZF2 expression in human CD4+FOXP3+ regulatory T cells isolated from MDA-MB231 tumor xenografts (Tumor) or blood (Periphery) following 14 daily oral doses of 0.3, 1, 3 and 30 mg/kg Compound I-57 administered to the hPBMC AdT model.
The PK/PD relationship of I-57 was examined in the hPBMC AdT model system. Human PBMCs were adoptively transferred into female NSG mice harboring established MDA-MB231 xenografts (FIG. 6). This model was selected based on the observation that IKZF2 positive Tregs (CD4+FOXP3+) were readily identifiable in peripheral blood and infiltrated in the tumor xenografts.
The impact of I-57 on IKZF2 protein expression in human Tregs in the periphery and infiltrated in MDA-MB231 xenografts was assessed via flow cytometry at multiple time points after the last I-57 dose. […] Maximum effects were generally observed 4-16 h post dose. At a given dose level, the magnitude and duration of IKZF2 reduction in Tregs was generally consistent across tissues (tumor, spleen and blood).
Based on the data from this hPBMC AdT mouse model, unbound I-57 (73% percent plasma binding in the mouse) exposures (AUCinf) of 7, 30, 157 and 3474 ng*h/mL are required to achieve the reduction of IKZF2 positivity (via flow cytometry) in tumor Tregs by 31, 43, 56, and 75%, respectively. The relationship between the magnitude and duration of I-57-mediated IKZF2 degradation and subsequent modulation of therapeutically relevant downstream biology is not yet well understood.

[2] = test system: monkey IKZF2; assay: IKZF2 degradation, species relevance (monkey)
Experimental: The starting dose of I-57 selected for this study is supported by 4-week GLP toxicology studies performed in cynomolgus monkeys. […] GLP toxicity studies identified 30 mg/kg as the HNSTD in monkey and supported a starting dose up to 100 mg QD in human (BSA scaled HED and using a safety factor of 6). The selected dose of 20 mg is anticipated to result in a significant but sub-maximal IKZF2 degradation in human PBMCs and TILs (50-90%), based on PK/PD modeling of I-57 exposure and IKZF2 degradation in cynomolgus PBMCs. More IKZF2 degradation may be required to change downstream biology. Therefore, 20 mg is considered safe. Escalation from this starting dose will facilitate the determination of the minimal required dose which provides optimal IKZF2 degradation to impact downstream biological activity.

[3] = target: T2, IKZF2 (Homo sapiens, UniProt Q96SW2+Q9UKS7); assay: IKZF2 protein in total tumor-infiltrating lymphocytes by immunohistochemistry, hPBMC AdT model (FIG. 8); format: in vivo; parameters: endogenous in cells; host or cells: primary human PBMCs / primary Treg cells; conditions: 24 h post the 14th daily dose
T2 sequence (Q9UKS7 whole entry): as the sequence (Q9UKS7 whole entry) above
T2 sequence (Q96SW2 whole entry): as the sequence (Q96SW2 whole entry) above
T2 sequence (Q16531 whole entry partner): as the sequence (Q16531 whole entry partner) above
Experimental: FIG. 8A is a bar graph showing the change in the IKZF2 protein levels in total tumor-infiltrating lymphocytes by immunohistochemistry (IHC) at 24 h post the 14th daily dose of 1, 3 or 30 mg/kg Compound I-57.
IKZF2 protein levels in total tumor-infiltrating lymphocytes were also assessed by immunohistochemistry (IHC) at 24 h post the 14th dose of 1, 3 or 30 mg/kg I-57. […] Overall, IKZF2 degradation assessed by IHC was generally consistent with our findings in Tregs by flow cytometry, though dose dependency was less apparent. Together, the data support the finding of profound I-57-mediated IKZF2 degradation in tumor-infiltrating lymphocytes (FIG. 8A and FIG. 8B).

[4] = target: T2, IKZF2; assay: Degradation of prolabel-tagged target proteins in HEK293T cells (FIG. 1); format: cell-based; parameters: prolabel; expressed in transfected cells; host or cells: HEK293T; conditions: HEK293T cells overexpressing prolabel-tagged target proteins; various concentrations
Description: FIG. 1. is a graph showing the selectivity of Compound I-57 for the degradation of IKZF2 over the other IKAROS family members, IKZF1, IKZF4, and GSPT1 at various concentrations in HEK293T cells overexpressing prolabel-tagged target proteins.
Although the specific transcriptional targets of IKZF2 remain to be defined, IKZF2 binds to and represses transcription from the IL-2 promoter region (Baine 2013). […] Finally, an in vitro assay recapitulating hallmarks of T cell dysfunction/exhaustion, by sequential TCR stimulation of isolated primary human T cells, was used to test the hypothesis that […] would rescue the exhausted phenotype and enhance Teff cell activity. […] In addition to IKZF1, other known cereblon substrates including translation termination factor G1 to S phase transition 1 (GSPT1) are not degraded by I-57 (FIG. 1).

[5] = Toxicology studies incl. 4-week GLP studies in rats and cynomolgus monkeys; format: in vivo; conditions: from 4-week GLP toxicology studies in rats (30, 100, 300 mg/kg/day) and cynomolgus monkeys (3, 10, 30 mg/kg/day)
Description: The non-clinical safety profile of I-57 was established in vitro, and in vivo in rats and cynomolgus monkeys in studies up to 4-weeks duration. Based on the outcome of these studies, QTc interval prolongation was identified as the principal safety signal for I-57. There were other toxicities such as diarrhea and vomiting in monkeys, and mortality, clinical signs and target organ toxicities in rats; however, these occurred at exposures far above those expected to result in clinical activity.
Preclinical safety data in 4-week GLP toxicology studies in rats (30, 100 and 300 mg/kg/day) and cynomolgus monkeys (3, 10 and 30 mg/kg/day) provide maximum recommended starting dose (MRSD) of 100 mg in humans. Based on non-clinical animal models including AdT studies, cynomolgus vaccination studies and cynomolgus PK/PD studies (See Example 1) I-57 at 20 mg is expected to result in submaximal IKZF2 degradation in PBMCs and tumor. This is considered safe and will permit PK/PD characterization and determination of the lowest dose of I-57 at which maximal detectable IKZF2 degradation is achieved.

[6] = In vivo non-clinical PK / high dose PK and toxicology exposure; conditions: rat; between 3 mg/kg and 300 mg/kg
Experimental: The in vivo non-clinical PK profile of I-57 was investigated in mouse, rat, dog and cynomolgus monkey using I-57 free base. […] After p.o. administration, the absorption of I-57 was rapid with peak blood concentration (Tmax) occurring between 1 and 4 hours. […] In high dose PK and toxicology studies with I-57 the exposures in mouse, rat and monkey increased with dose.

O=C1CCC(N2Cc3cc(C4CCN(Cc5ccccc5)CC4)ccc3C2=O)C(=O)N1 (stereo not drawn) [Compound I-57, 3-(5-(1-benzylpiperidin-4-yl)-1-oxoisoindolin-2-yl)piperidine-2,6-dione]
time of maximum effects ([1]; post dose (after last dose)): 4 to 16 h
IKZF2 degradation (reduction of percentage of IKZF2 positive Tregs) ([1]; tumor and peripheral blood, 14 daily oral doses of 0.3, 1, 3 and 30 mg/kg): robust dose and exposure-dependent IKZF2 degradation
reduction of IKZF2 positivity in tumor Tregs (flow cytometry) ([1]; unbound AUCinf 7 ng*h/mL): 31%
reduction of IKZF2 positivity in tumor Tregs (flow cytometry) ([1]; unbound AUCinf 30 ng*h/mL): 43%
reduction of IKZF2 positivity in tumor Tregs (flow cytometry) ([1]; unbound AUCinf 157 ng*h/mL): 56%
reduction of IKZF2 positivity in tumor Tregs (flow cytometry) ([1]; unbound AUCinf 3474 ng*h/mL): 75%
degradation of monkey IKZF2 [2]: can degrade monkey
IKZF2 degradation in total tumor-infiltrating lymphocytes (IHC) ([3]; 30 mg/kg): approximately 85%
IKZF2 levels in total tumor-infiltrating lymphocytes (IHC) ([3]; 1, 3 and 30 mg/kg): Robust reduction in IKZF2 levels
degradation of IKZF2 [4]: potent and specific degrader; also recorded: potent and specific degradation
maximum recommended starting dose (MRSD) in humans [5]: 100 mg
increase in AUC with dose [6]: roughly dose proportional
